Reference: patent US20220267753A1, “RATIONAL THERAPEUTIC TARGETING OF ONCOGENIC IMMUNE SIGNALING STATES IN MYELOID MALIGNANCIES VIA THE UBIQUITIN CONJUGATING ENZYME UBE2N” (CHILDREN'S HOSPITAL MEDICAL CENTER, priority 2019, published 2022)
pIC50: −log10 of the molar value. Where two headings read alike, the source gives them in different places.

Assays:
[1] = tested on: MOLM-13 cells; experiment: MTS assay of MOLM-13 cells overexpressing UBE2N wild type or UBE2N C87S; type: cell-based, human
Source text: For knockdown studies, UBE2N shRNA template oligonucleotides from the TRC shRNA library cloned into the pLKO.1 TRC cloning vector (Addgene: #10878) and pLKO.1 TRC cloning vector (Table 3). The puromycin gene in pLKO.1 was replaced with GFP. pLKO.1 TRC control was used as non-silencing control (Addgene: #10879). For production of lentiviral particles, lentiviral shRNA expression constructs were transfected together with packaging vectors into 293T producer cells using TransIT transfection reagent (Mirus, MIR 2306), supernatants were harvested after 48 and 72 hours, and concentrated by ultracentrifugation. […] UBE2N knockdown efficiency was determined by quantitative real time PCR (qRT-PCR) and western blot and quantified as described elsewhere. […] Levels of overexpression of UBE2N were determined by western blot.
AML cell lines (5×10^3 cells/well) were seeded in 96-well plates and grown for 24 to 96 h in serum (10%)-containing medium in the presence or absence of inhibitors at the indicated concentrations. Proliferation was analyzed by means of an MTS assay using the CellTiter 96 Aqueous One Solution Cell Proliferation Assay (Promega, Madison, Wis., USA), according to the manufacturer's instructions. […] For the screening of 160 compounds from the UC library, the cell metabolic activity was assessed at 24 hours of treatment of MOLM-13 cells. […]

[2] = tested on: AML cell lines; experiment: Cell proliferation MTS assay, panel of AML cell lines; type: cell-based; settings: Homo sapiens
Experimental: AML cell lines (5×10^3 cells/well) were seeded in 96-well plates and grown for 24 to 96 h in serum (10%)-containing medium in the presence or absence of inhibitors at the indicated concentrations. Proliferation was analyzed by means of an MTS assay using the CellTiter 96 Aqueous One Solution Cell Proliferation Assay (Promega, Madison, Wis., USA), according to the manufacturer's instructions. Data are mean with standard deviation from three independent experiments in technical triplicates. For the screening of 160 compounds from the UC library, the cell metabolic activity was assessed at 24 hours of treatment of MOLM-13 cells. Top 15 candidates were re-screened at 2 μM, and the cell metabolic activity was determined at 24 hours of treatment. In certain experiments, cell viability was determined by staining the cells with trypan blue at a 1/2 dilution and counting total number of viable cells upon treatment with UC-764864 or DMSO control. The cells were counted daily for 4 days using an automated cell counter (Countess II FL from Life Technologies). […] UC-764864 was added at the indicated concentrations and cells were incubated with drug for 3 days, at which point cell viability was measured by MTS according to manufacturer's instructions.

[3] = tested on: MOLM-13 cells; experiment: Trypan blue viability and Caspase 3 cleavage immunoblot; type: cell-based, human
Experimental: AML cell lines (5×10^3 cells/well) were seeded in 96-well plates and grown for 24 to 96 h in serum (10%)-containing medium in the presence or absence of inhibitors at the indicated concentrations. Proliferation was analyzed by means of an MTS assay using the CellTiter 96 Aqueous One Solution Cell Proliferation Assay (Promega, Madison, Wis., USA), according to the manufacturer's instructions. Data are mean with standard deviation from three independent experiments in technical triplicates. For the screening of 160 compounds from the UC library, the cell metabolic activity was assessed at 24 hours of treatment of MOLM-13 cells. Top 15 candidates were re-screened at 2 μM, and the cell metabolic activity was determined at 24 hours of treatment. In certain experiments, cell viability was determined by staining the cells with trypan blue at a 1/2 dilution and counting total number of viable cells upon treatment with UC-764864 or DMSO control. The cells were counted daily for 4 days using an automated cell counter (Countess II FL from Life Technologies). […] UC-764864 was added at the indicated concentrations and cells were incubated with drug for 3 days, at which point cell viability was measured by MTS according to manufacturer's instructions. […]

CCc1ccc(C(=O)C=CSc2nc3ccc(C)cc3[nH]2)cc1 [UC-764864, 1-(4-ethylphenyl)-3-[(6-methyl-1H-benzimidazol-2-yl)sulfanyl]prop-2-en-1-one]
viability of MOLM-13 cells expressing UBE2N(C87S) [1]: did not affect
viability of MOLM-13 cells expressing wild-type UBE2N [1]: significantly suppressed
pIC50 ([2]; HL-60, NOMO-1, Kasumi-1, MV4-11, MDSL, read-out: IC50, cell lines with intermediate sensitivity): 5.17 to 5.37
pIC50 ([2]; MOLM-14, MOLM-13, THP-1, SKM-1, read-out: IC50, highly sensitive cell lines): 5.60 to 7.70
apoptosis (trypan blue uptake, cleavage of Caspase 3) [3]: increase in apoptosis
